Data set [1] has as its system cardiac infarction animal models. The settings on record: Arzneimittel Forschung/Drug Research, 36 (1986); cited from earlier work.
Data set [2] deals with T1, m-calpain (Rattus norvegicus, UniProt Q07009).
T1 construct: m-calpain was purified from rat brain; from tissue; host or cells: rat brain
T1 sequence (Q07009 20-700 limits assumed): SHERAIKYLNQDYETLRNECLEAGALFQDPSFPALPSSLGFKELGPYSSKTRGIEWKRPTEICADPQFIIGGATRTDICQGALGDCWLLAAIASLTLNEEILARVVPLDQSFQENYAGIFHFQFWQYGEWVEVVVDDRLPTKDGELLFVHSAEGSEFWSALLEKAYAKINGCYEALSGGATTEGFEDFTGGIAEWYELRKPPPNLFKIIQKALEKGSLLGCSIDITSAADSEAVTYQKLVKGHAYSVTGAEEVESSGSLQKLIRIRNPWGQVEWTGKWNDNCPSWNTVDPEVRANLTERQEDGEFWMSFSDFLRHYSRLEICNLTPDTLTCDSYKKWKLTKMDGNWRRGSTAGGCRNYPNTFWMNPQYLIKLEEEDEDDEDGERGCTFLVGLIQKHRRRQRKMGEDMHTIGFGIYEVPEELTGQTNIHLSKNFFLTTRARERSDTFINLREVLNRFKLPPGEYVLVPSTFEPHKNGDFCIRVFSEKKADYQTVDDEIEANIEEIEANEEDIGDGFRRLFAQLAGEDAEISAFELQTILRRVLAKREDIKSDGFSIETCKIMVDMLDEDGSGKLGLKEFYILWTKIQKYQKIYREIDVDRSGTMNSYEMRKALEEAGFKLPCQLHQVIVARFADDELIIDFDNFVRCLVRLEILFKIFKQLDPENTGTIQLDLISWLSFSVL
T1 sequence (Q64537 1-270 partner): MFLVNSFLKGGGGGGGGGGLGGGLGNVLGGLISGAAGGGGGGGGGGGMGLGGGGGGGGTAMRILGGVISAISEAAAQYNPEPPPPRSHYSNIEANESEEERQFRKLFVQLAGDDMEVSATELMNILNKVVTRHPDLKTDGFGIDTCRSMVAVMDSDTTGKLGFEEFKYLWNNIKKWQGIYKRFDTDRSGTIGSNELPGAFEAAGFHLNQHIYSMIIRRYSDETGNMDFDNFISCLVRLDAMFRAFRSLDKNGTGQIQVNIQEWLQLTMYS
The data set can be described thus: Confirmation of reversible inhibitory activity (remaining m-calpain activity after incubation with inhibitor). Type of data set: biochemical. The settings on record: incubated 0 to 20 minutes at 10° C.; 10 μM-150 μM inhibitor solution (1 μl); FIGS. 1 to 3. The procedure:
According to the assay for inhibitory activity against calpain in Experiment 1, reversible inhibitory activity of the present compounds was confirmed as follows.
To an imidazole buffer (54 μl ) were added 500 mM CaCl2 solution (1 μl), 5 mM solution of the synthetic substrate described in the literature (4 μl), 10 μM-150 μM inhibitor solution (1 μl) and m-calpain solution (40 μl), and the mixture was incubated for 0 to 20 minutes at a temperature of 10° C. Then, 100 mM EDTA solution (5 μl) was added to inactivate the enzymatic activity. To the mixture was then added imidazole buffer (900 μl) followed by an addition of 5 mM synthetic substrate solution (40 μl) and 500 mM CaCl2 solution (10 μl), and the decomposition rate of the synthetic substrate was measured for 10 minutes at a temperature of 30° C. to determine the remaining activity of the enzyme.
The compounds of Examples 3, 113 and 190 were used as the inhibitor, and E-64 which is an irreversible inhibitor was also used for comparison.

For data set [3], the system named is cataract animal models. The settings on record: Investigative Ophthalmology & Visual Science, 32, p. 533 (1991); cited from earlier work.
In data set [4] the test system is rat which has an enhanced bone destruction by administration of parathyroid hormone. The following applies: cited from earlier work.
In data set [5] the target is T2, papain (Carica papaya, UniProt P00784).
T2 sequence (P00784 134-345): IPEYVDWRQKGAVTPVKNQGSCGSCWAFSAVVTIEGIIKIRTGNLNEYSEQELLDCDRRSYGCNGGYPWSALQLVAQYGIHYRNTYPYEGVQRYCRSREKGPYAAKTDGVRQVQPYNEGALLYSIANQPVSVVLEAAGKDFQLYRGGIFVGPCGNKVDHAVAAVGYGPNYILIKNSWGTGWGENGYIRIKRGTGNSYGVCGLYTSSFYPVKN
As to the kind of experiment: Thiol protease inhibitory activity, papain (P-3125, Sigma). Type of data set: biochemical. The method in brief: (§1)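 Papain and bovine cathepsin B assayed by a published method; cathepsin L purified from rat kidney and assayed in the same manner as cathepsin B. m-Calpain purified from rat brain and assayed by a separate published procedure.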

Data set [6] addresses T3, cathepsin B (Bos taurus, UniProt P07688).
T3 construct: purchased Sigma C-6286
The data set can be described thus: Thiol protease inhibitory activity, cathepsin B (C-6286, Sigma). The settings on record: Table 3. The class given is biochemical. The method in brief:
as §1

Data set [7] concerns the target T4, cathepsin L (Rattus norvegicus, UniProt P07154).
T4 construct: Cathepsin L was purified from rat kidney; from tissue; host or cells: rat kidney
The data set can be described thus: Thiol protease inhibitory activity, cathepsin L purified from rat kidney. The settings on record: Table 3. The class given is biochemical. In outline:
as §1

For data set [8], the target named is T1, m-calpain. As to the kind of experiment: Thiol protease inhibitory activity, m-calpain purified from rat brain. Type of data set: biochemical. The following applies: Table 3. The method in brief:
as §1

Data set [9] relates to microtubule-associated protein. The settings on record: Brain Research, 526, p. 177 (1990); cited from earlier work.
In data set [10] the test system is experimental muscular dystrophy hamster. The settings on record: Journal of Pharmacobio dynamics, 10, 678 (1987); cited from earlier work.
Data set [11] deals with aggregation of platelet. The settings on record: Thrombosis Research, 57, p. 847 (1990); cited from earlier work.
Data set [12] has as its system production of IgE. The settings on record: The Journal of Antibiotics, 42, p. 1362 (1989); cited from earlier work.
Data set [13] can be described thus: in vivo. The settings on record: rat, po. The procedure: The LD50 value of the compound prepared in Example 94 was: >2,000 mg/kg.
In data set [14] the test system is axon in brain trauma models of rat. The settings on record: Journal of Neurosurgery, 65, p. 92 (1986); cited from earlier work.

Like-named read-outs stand apart in the source and are kept apart here. Some results are limits rather than exact numbers.

T4 sequence (P07154 114-334): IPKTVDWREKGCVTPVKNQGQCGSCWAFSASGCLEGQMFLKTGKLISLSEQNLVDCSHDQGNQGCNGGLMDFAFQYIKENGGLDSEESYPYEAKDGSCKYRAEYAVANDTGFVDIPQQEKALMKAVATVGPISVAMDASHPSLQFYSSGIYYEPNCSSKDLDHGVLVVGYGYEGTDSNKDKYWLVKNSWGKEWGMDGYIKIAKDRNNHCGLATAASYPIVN

`CCOC(=O)[C@@H]1O[C@H]1C(=O)NC(CC(C)C)C(=O)N1CCN(Cc2ccc(OC)c(OC)c2OC)CC1.CCOC(=O)[C@@H]1O[C@H]1C(=O)NC(CC(C)C)C(=O)N1CCN(Cc2ccc(OC)c(OC)c2OC)CC1.O=S(=O)(O)O` (some centres unmarked) [NCO-700]: in data set [1], the “effect on cardiac infarction” value is “effective on cardiac infarction”.
As for `CC(C)C[C@H](NC(=O)[C@H]1O[C@@H]1C(=O)O)C(=O)NCCCCNC(=N)N` [E-64], in [2], the “remaining enzymatic activity after incubation with inhibitor (reversible inhibition)” value is “enzymatic activity rapidly disappeared in proportion to the incubation period”. Moreover, in data set [3], the effect on cataract entry is reported as “effective on cataract in animal models”. Also, the “calcium concentration and hydroxyproline concentration in blood” value in data set [4] is “decrease of calcium concentration and hydroxyproline concentration in blood”.
For the molecule `CCCC[C@H](NC(=O)[C@H](CC(C)C)NC(=O)COc1ccccc1)C(=O)CSCc1ccco1` [3 (No. 82), (s)-1-furfurylthio-3-((s)-4-methyl-2-phenoxyacetylaminovalerylamino)-2-heptanone], the concentration for half-maximal inhibition (IC50) was determined as 260 nM in data set [5], 710 nM in [6], 16 nM in data set [7] and 3300 nM in data set [8]. The “remaining enzymatic activity after incubation with inhibitor (reversible inhibition)” value in data set [2] is “activity nearly equal to that of a control remained”.
As for `CSCC(=O)[C@H](Cc1ccccc1)NC(=O)[C@H](CC(C)C)NC(=O)OCc1ccccc1` [Example 113, (s)-3-((s)-2-benzyloxycarbonylamino-4-methylvalerylamino)-1-methylthio-4-phenyl-2-butanone], the “remaining enzymatic activity after incubation with inhibitor (reversible inhibition)” value in data set [2] is recorded as “activity nearly equal to that of a control remained”.
Take `CC(C)CCNC(=O)[C@H](CC(C)C)NC(=O)[C@H]1O[C@@H]1C(=O)O` [E-64-C]: the “degradation of microtubule-associated protein after brain ischemia” value in data set [9] was “inhibits the degradation of microtubule-associated protein after the brain ischemia”.
With `CCOC(=O)[C@H]1O[C@@H]1C(=O)N[C@@H](CC(C)C)C(=O)NCCC(C)C` [E-64-d], the “effect in experimental muscular dystrophy hamster” value in [10] is given as “life-prolonging effect”. For the same molecule, the “aggregation of platelet caused by thrombin” value in data set [11] was “suppressed aggregation of platelet caused by thrombin”.
In the case of `NC(N)=NCCCCNC(=O)[C@H](Cc1ccccc1)NC(=O)[C@H]1O[C@@H]1C(=O)O` [Estatin A], the “production of IgE” value in [12] is reported as “specifically inhibit the production of IgE without affecting on the production of IgG”. In addition, in data set [4], the “calcium concentration and hydroxyproline concentration in blood” value was “decrease of calcium concentration and hydroxyproline concentration in blood”.
For the molecule `CC(C)C[C@H](NC(=O)OCc1ccccc1)C(=O)N[C@@H](Cc1ccccc1)C(=O)CN(C)C` [190 (No. 465), (s)-3-((s)-2-benzyloxycarbonylamino-4-methylvalerylamino)-1-dimethylamino-4-phenyl-2-butanone], the IC50 is 40000 nM in data set [5] (Table 3, read-out: IC50 papain); 1600 nM in data set [6]; 2800 nM in data set [7]; 7300 nM in data set [8]. The “remaining enzymatic activity after incubation with inhibitor (reversible inhibition)” value in data set [2] is on record as “activity nearly equal to that of a control remained”.
Regarding `CCCC[C@H](NC(=O)[C@H](CC(C)C)NC(=O)c1cc(=O)c2ccccc2o1)C(=O)CSCc1ccco1` [94 (No. 188), (s)-1-furfurylthio-3-[(s)-4-methyl-2-(4-oxo-4H-1-benzopyranylcarbonylamino)valerylamino]-2-heptanone], the IC50 in data set [5] was determined as 770 nM; in [6], 1100 nM; in data set [7] it was 24 nM; in data set [8] it was 9200 nM. Also, the LD50 at 168 h in data set [13] is over 2000 mg/kg.
As for `CC(=O)N[C@@H](CC(C)C)C(=O)N[C@@H](CC(C)C)C(=O)N[C@H](C=O)CCCNC(=N)N` [leupeptin], in data set [14], the “protection of axon in brain trauma models” value is “can protect axon”.

As a reminder, the IC50 is the midpoint of a concentration-inhibition curve. By LD50 is commonly meant the dose expected to kill half of the subjects tested.

These data come from patent US5639783A, “Ketone derivatives” (Mitsubishi Chemical Corporation, priority 1991, dated 1997).
